The source of these data is PMC8812547 (Proceedings of the National Academy of Sciences of the …, 2022).

Assay [1] has as its system adult mice (hindpaw). The format is in vivo, mouse. The following applies: 0.2 nmol A803467 coadministered with 0.6 nmol sPm1a, intraplantar; P < 0.001.
For assay [2], the system named is adult mice (hindpaw). In words: mechanical paw withdrawal threshold. The format is in vivo, mouse. To be noted: 200 pmol A803467 with 600 pmol sPm1a; n = 5 to 8; P < 0.001.
The subject of assay [3] is small dorsal root ganglion neurons. It counts as cell-based, mouse. To be noted: A803467 1 µM with sPm1a; n = 6; sPm1a vs. A803467/sPm1a P = 0.0007.
In assay [4] the test system is TTX-R NaV channels of small DRG neurons. The format is cell-based, mouse. To be noted: A803467 1 μM with sPm1a; TTX 0.5 μM; n = 5.
For assay [5], the system named is KV2.1. The following applies: cited from earlier work.

With `COc1cc(NC(=O)c2ccc(-c3ccc(Cl)cc3)o2)cc(OC)c1` [A803467], in assay [1], the “spontaneous nocifensive behavior, paw flinches” value was 93.8 ± 8.8 flinches per 15 min. Further, the “paw withdrawal force (mechanical allodynia)” value in assay [2] is on record as 2.5 ± 0.2 g. For the same compound, in assay [3], the “inhibition of sPm1a-induced neuronal firing” value is reported as “abolished sPm1a-induced neuronal firing”. Also, in assay [4], the “reduction of sPm1a-sensitive TTX-R NaV component” value was determined as 87.3 ± 11.1%.
For “ScTx1: gating-modifier venom peptide (DCTRMFGACRRDSDCCPHLGCKPTSKYCAWDGTI; Stromatoxin-1; UniProt P60991 1-34, looked up)”, the KV2.1 gating modification result in assay [5] was “shifting its activation to more depolarized voltages”.
